Common to all, as to experiment: DTP human tumour cell line panel, 48 h
Assay [1] concerns MDA-MB-435.
The subject of assay [2] is CAKI-1 renal.
For assay [3], the system named is 786-0 renal.
Assay [4] concerns MOLT-4 leukemia.
Assay [5] concerns BT-549 breast.
Assay [6] concerns SF-295 CNS.
The test system of assay [7] is HOP-92 NSCLC.
Assay [8] deals with NCI-H522 lung.
The subject of assay [9] is ACHN renal.
The subject of assay [10] is NCI/ADR-RES ovarian.
Assay [11] deals with A498 renal.

Molecules are shown by their SMILES.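 A five-concentration, 48-hour dose response in 96-well plates underlies each endpoint, interpolated linearly between surrounding concentrations. TGI denotes the concentration required for complete inhibition of growth.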 Some results are limits rather than exact numbers.

The term TGI denotes the concentration at which net growth stops. Read a low TGI as more potent growth arrest. Turning to `Clc1ccc(Cc2nc3ccccc3nc2-c2cccc(Cl)c2)cc1`, the TGI worked out at 4.09 µM in assay [1]; 8.51 µM in assay [2]; 3.63 µM in [3]; 6.82 µM in assay [4]; 16.7 µM in assay [5]; 32.6 µM in assay [6]. In addition, the TGI was determined as 5.14 µM in assay [7], 3.41 µM in [8], 3.45 µM in [9] and 8.96 µM in assay [10].

Consider `CC1Cc2c(cc(N)nc2Br)NC1=O` (stereo unspecified), for which the TGI in assay [1], in assay [2], in assay [3], in [4], in assay [5] and in [6] was greater than 100 µM throughout. The TGI in assay [7], in assay [8], in assay [9] and in [10] was greater than 100 µM throughout.

In the case of `CCOC(=O)c1c(SCCN2CCCCC2)n(-c2ccccc2)c(=S)n(-c2ccccc2)c1=O`, the TGI in assay [1] is 31.5 µM; in [3], 28.1 µM; in [4], 6.7 µM; in [5], 31.1 µM; in assay [6] it was greater than 100 µM; in assay [7], 30.8 µM. The TGI came out at 35.4 µM in [8], 34.7 µM in assay [9] and 41.7 µM in assay [10].

Take `O=C1CCc2cc3c(cc21)C(C(=O)O)CC3` (stereo unspecified): the TGI in assay [2], in [3], in assay [4], in assay [5], in assay [6] and in assay [8] was greater than 100 µM each time. Moreover, the TGI in assay [9] and in assay [10] was greater than 100 µM in each case.

`COC(C[C@H]1CCCC[C@]1(O)/C(=C\CO[Si](C(C)C)(C(C)C)C(C)C)Sc1ccccc1)OC`: the TGI in [1] was greater than 100 µM; in [2] it was greater than 100 µM; in [11], greater than 100 µM; in [3] it was greater than 100 µM; in assay [4], 38.8 µM; in assay [6], greater than 100 µM. Further, the TGI in [7] is 68.8 µM; in [8] it was 39.6 µM; in [9], greater than 100 µM; in assay [10], greater than 100 µM.

As to `COc1ccc(C(=O)/C=C/c2ccc(OCCCOc3ccc(/C=C/C(=O)c4ccc(OC)c(OC)c4)cc3)cc2)cc1OC`, the concentration for total growth inhibition (TGI) in assay [1], in [2], in assay [3], in assay [4], in assay [6] and in assay [9] was greater than 100 µM in each case. The TGI in assay [10] was greater than 100 µM.

In the case of `OCC1c2ccccc2-n2nc(-c3ccccc3)c(O)c21` (stereo unspecified), the TGI is 92.2 µM in assay [1]; 31.7 µM in assay [2]; 32.1 µM in assay [3]; greater than 100 µM in assay [4]; 85.1 µM in assay [5]; greater than 100 µM in assay [6]. Further, the concentration for total growth inhibition (TGI) in assay [7] is 35 µM; in assay [8] it was 48.7 µM; in [9], 30.6 µM; in assay [10] it was 51.1 µM.

As to `CN(c1ccc(Cl)cc1)S(=O)(=O)c1ccccc1`, the TGI in assay [1], in [2], in assay [3], in assay [4], in assay [5] and in assay [6] was greater than 100 µM throughout. Besides, the TGI in assay [8], in [9] and in [10] was greater than 100 µM each time.

Take `COc1ccccc1NC(=O)CSC(N)=O`: the TGI is greater than 100 µM in [2]; greater than 100 µM in [11]; 36.6 µM in [3]; greater than 100 µM in [6]; greater than 100 µM in assay [7]; greater than 100 µM in [8]. Moreover, in assay [9], the TGI was greater than 100 µM.

For the molecule `O=C(NCCNCCO)N/N=C/c1ccccc1`, the TGI in assay [3], in assay [4], in assay [6], in assay [8] and in [9] was greater than 100 µM in each case.

For the molecule `COc1ccc(OC)c(-c2cn3c(n2)sc2ccccc23)c1`, the TGI in [1], in assay [2], in assay [3], in assay [4], in [5] and in assay [6] was greater than 100 µM throughout. The TGI in [7], in [8], in assay [9] and in assay [10] was greater than 100 µM in each case.

For the molecule `C/C(=C\COP(=O)(O)OP(=O)(O)O)CC/C=C(\C)CNc1ccccc1`, the TGI in assay [1] was greater than 50 µM; in [2] it was greater than 50 µM; in [3], greater than 50 µM; in [4], greater than 50 µM; in assay [5] it was 44.5 µM; in assay [6], greater than 50 µM. Also, the TGI in assay [8], in [9] and in [10] was greater than 50 µM each time.

For the molecule `CC(C)(C)C(=O)O[C@H]1C=C[C@@H](O)[C@@H]2[C@H]1[C@@H]1C=C[C@H]2C1`, the TGI in assay [2] is greater than 100 µM; in assay [11], 50.8 µM; in assay [3], greater than 100 µM; in assay [4] it was 83.8 µM; in assay [5], greater than 100 µM; in assay [6] it was greater than 100 µM. Also, the TGI in [7] is greater than 100 µM; in assay [8] it was 79.8 µM; in assay [9], greater than 100 µM; in assay [10], 96.1 µM.

For the molecule `CCOC(=O)/C(C1=N[C@H](C(=O)OCC)CS1)=C(\O)c1ccccc1`, the TGI in assay [2], in [4], in assay [6], in [8] and in assay [9] was greater than 100 µM throughout.

With `NNc1nnc(-c2ccccc2)nc1Cc1ccccc1`, the TGI in assay [2], in assay [4], in [8] and in assay [9] was greater than 100 µM in each case.

On to `C/C(=N\NC(=O)c1ccncc1)c1cccc(C(F)(F)F)c1`, for which the TGI in assay [2], in assay [4], in assay [5], in assay [7] and in assay [10] was greater than 10 µM in each case.

`Cc1c(Cl)c(=O)oc2cc(OCC(O)COC(C)C)ccc12` (stereo unspecified): the TGI in assay [1] was greater than 100 µM; in assay [3], greater than 100 µM; in [4], 66.9 µM; in assay [6] it was greater than 100 µM; in assay [7], greater than 100 µM; in [8] it was greater than 100 µM. Moreover, the concentration for total growth inhibition (TGI) in assay [9] and in assay [10] was greater than 100 µM throughout.

Consider `CN1C(=O)C(CCO)(C(C)(C)C)c2ccccc21` (stereo unspecified), for which the TGI in assay [1], in assay [2], in [3], in assay [4], in assay [6] and in assay [7] was greater than 100 µM throughout. For the same molecule, the TGI in assay [9] and in [10] was greater than 100 µM in each case.

Turning to `CN1CCCC(OC(=O)c2cc3cc(CCl)ccc3oc2=O)C1` (stereo unspecified), the TGI was determined as 41.6 µM in assay [1]; 60.5 µM in assay [2]; 58.4 µM in assay [3]; 98 µM in [4]; 49.2 µM in assay [5]; 77.9 µM in assay [6]. The TGI was 30.5 µM in assay [7], 34.7 µM in [8], 51.1 µM in assay [9] and 87 µM in assay [10].

On to `COc1c(-c2ccc(F)cc2)oc2cc(O)cc(O)c2c1=O`, for which the TGI is 93.8 µM in assay [1]; 48.5 µM in [2]; greater than 100 µM in assay [11]; 99.2 µM in assay [3]; greater than 100 µM in [4]; 83.9 µM in assay [6]. For the same molecule, the TGI in [7] is greater than 100 µM; in assay [8], 44.2 µM; in [9], 93.4 µM; in assay [10] it was 63.5 µM.

Take `CCOC(=O)NC(OCc1ccccc1)(C(=O)OC)C(F)(F)F` (stereo unspecified): the TGI in [1] was greater than 100 µM; in assay [2], 87.1 µM; in [4] it was greater than 100 µM; in assay [5] it was greater than 100 µM; in [6] it was greater than 100 µM; in assay [7], greater than 100 µM. The TGI in assay [8], in [9] and in [10] was greater than 100 µM each time.

Consider `Cc1sc2nc3n(sc4nc5sc(C)c(C)c5c(=O)n43)c(=O)c2c1C`, for which the TGI is greater than 100 µM in [1]; greater than 100 µM in assay [2]; greater than 100 µM in assay [3]; 52 µM in assay [4]; greater than 100 µM in assay [5]; greater than 100 µM in [6]. Besides, the TGI in assay [7] was greater than 100 µM; in assay [8], 32 µM; in assay [10] it was greater than 100 µM.

For the molecule `COc1ccc(/C=N/N=C(\N)NO)c(OC)c1OC`, the total growth inhibition concentration (TGI) in [1] was greater than 100 µM; in [2] it was greater than 100 µM; in assay [11], 77.6 µM; in assay [3], greater than 100 µM; in [4], greater than 100 µM; in assay [6] it was greater than 100 µM. Also, the concentration for total growth inhibition (TGI) in assay [7] was 71.2 µM; in [8], greater than 100 µM; in assay [9] it was 67.2 µM; in assay [10], 35.4 µM.

In the case of `Cc1cccc(=O)c([O-])c1.Cc1cccc(=O)c([O-])c1.Cc1cccc(=O)c([O-])c1.Cc1cccc(=O)c([O-])c1.[Th+4]`, the TGI in assay [2] was 86.6 µM; in [11], 81.6 µM; in assay [3], greater than 78.5 µM; in assay [4], greater than 27 µM; in assay [6], greater than 100 µM; in [7], greater than 68.9 µM. Besides, in assay [9], the TGI is greater than 100 µM.

With `COC(C/C=C\C=C\CC/C=C/CC(C)/C=C/C(=C\C(=O)O)CC(=O)O)/C(C)=C\C=C(/C)C(=O)O` (stereo unspecified), the TGI in assay [1], in assay [2], in assay [11], in assay [4], in [5] and in assay [6] was greater than 100 µM throughout. In addition, the TGI in assay [7] and in assay [8] was greater than 100 µM each time.

Consider `COc1ccc(C2C3=CONC3CC3CCCCC32)cc1` (stereo unspecified), for which the TGI in assay [1], in assay [2], in [3], in assay [4], in [5] and in [8] was greater than 100 µM in each case. This molecule also gave a TGI in assay [9] greater than 100 µM.

On to `O=C1c2ccccc2C2(c3ccc(Cl)cc3)N[C@@H]3CCCC[C@@H]3N12` (stereo partly specified), for which the TGI in assay [1], in [2], in [11], in [3], in [4] and in [5] was greater than 100 µM each time. Further, the TGI in assay [6], in assay [7] and in assay [9] was greater than 100 µM throughout.

On to `COc1ccc(C[C@H]2COC(=O)[C@@H]2Cc2ccccc2)cc1OC`, for which the TGI in assay [11], in assay [3], in assay [4], in assay [6], in [9] and in [10] was greater than 100 µM each time.

In the case of `COc1ccc2c3c([nH]c2c1)-c1nc2ccccc2c(=O)n1CC3`, the TGI in [1], in assay [3], in assay [4], in assay [6], in assay [8] and in [9] was greater than 25 µM throughout. In addition, the TGI in [10] is greater than 25 µM.

Consider `Cc1cc(=O)[nH]c(NN2C(Cl)C(=O)C2c2ccco2)n1` (stereo unspecified), for which the TGI is greater than 100 µM in [4], 69.8 µM in assay [7] and greater than 100 µM in assay [9].

Consider `Cc1ccc(Cl)c2c(=O)cc(-c3ccccc3)[nH]c12`, for which the concentration for total growth inhibition (TGI) in assay [2], in [3], in assay [4], in [6], in assay [7] and in [8] was greater than 100 µM each time. Besides, in assay [9], the TGI was greater than 100 µM.

With `Cn1c(O)c(/C=N/c2ncccn2)c(=O)[nH]c1=O`, the TGI in assay [1], in [2], in assay [11], in assay [3], in [4] and in assay [6] was greater than 100 µM each time. Also, the TGI in [7], in assay [8], in [9] and in assay [10] was greater than 100 µM each time.

These data come from PubChem BioAssay (NCI).
